Reference: patent US20250144127A1, “LONG-CHAIN COMPOUND AND USE THEREOF” (Burgeon Therapeutics Co., Ltd., priority 2021, published 2025)

Key:
[1] = target: T1, Human-derived ACLY protein (Homo sapiens, UniProt P53396); assay: ACLY citrate cleavage enzyme inhibition, ADP-Glo assay; assay type: biochemical; conditions: 25 nM enzyme, 30 min, 37° C., read-out: IC50 for inhibition of ACLY enzyme activity (mean ± SD)
T1 construct: purchased Beijing Yiqiao Shenzhou Technology Co., Ltd 11769-H07B
T1 sequence (P53396 1-1101): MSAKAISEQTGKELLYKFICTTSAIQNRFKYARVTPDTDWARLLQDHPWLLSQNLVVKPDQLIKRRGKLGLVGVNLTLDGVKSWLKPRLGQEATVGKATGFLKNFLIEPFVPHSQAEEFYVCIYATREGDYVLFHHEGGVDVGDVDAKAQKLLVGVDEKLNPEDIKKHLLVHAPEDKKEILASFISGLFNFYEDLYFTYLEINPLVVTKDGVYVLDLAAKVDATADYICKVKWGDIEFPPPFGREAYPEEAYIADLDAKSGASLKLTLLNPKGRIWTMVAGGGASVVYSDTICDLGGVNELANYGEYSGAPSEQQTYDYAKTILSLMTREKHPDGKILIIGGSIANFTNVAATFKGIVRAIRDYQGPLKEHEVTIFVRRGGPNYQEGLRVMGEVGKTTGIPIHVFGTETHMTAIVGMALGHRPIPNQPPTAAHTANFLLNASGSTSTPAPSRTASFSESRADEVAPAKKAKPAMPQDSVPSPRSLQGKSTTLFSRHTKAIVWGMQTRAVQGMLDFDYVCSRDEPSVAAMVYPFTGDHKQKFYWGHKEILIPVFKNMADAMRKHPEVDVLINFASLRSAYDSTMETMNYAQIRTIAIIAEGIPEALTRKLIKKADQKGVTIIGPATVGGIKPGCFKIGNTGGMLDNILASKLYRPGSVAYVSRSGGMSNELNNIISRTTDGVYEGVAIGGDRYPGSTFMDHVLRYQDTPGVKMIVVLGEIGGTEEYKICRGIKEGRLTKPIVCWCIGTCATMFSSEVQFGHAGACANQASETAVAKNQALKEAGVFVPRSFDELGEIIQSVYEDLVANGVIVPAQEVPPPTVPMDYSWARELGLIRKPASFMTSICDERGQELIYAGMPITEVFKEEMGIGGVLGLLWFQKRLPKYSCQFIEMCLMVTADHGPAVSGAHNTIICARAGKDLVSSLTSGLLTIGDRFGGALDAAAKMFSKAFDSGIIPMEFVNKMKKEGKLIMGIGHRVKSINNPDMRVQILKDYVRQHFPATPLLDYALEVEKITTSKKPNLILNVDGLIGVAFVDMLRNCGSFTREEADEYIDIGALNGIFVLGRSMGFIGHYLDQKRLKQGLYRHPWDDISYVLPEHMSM
Excerpt: The ACLY-catalyzed citric acid cleavage process requires the consumption of one molecule of ATP to activate citric acid. Based on this reaction principle, the inventors utilized an ADP-Glo assay kit to detect the amount of ATP converted to ADP in response to the catalytic activity of ACLY. After the establishment of the activity measurement system and optimization of the reaction conditions, the inventors evaluated the ACLY inhibitory activity of the obtained novel ACLY small molecule inhibitors.
Activity test protocol: Human-derived ACLY protein was purchased from Beijing Yiqiao Shenzhou Technology Co., Ltd (Item No. 11769-H07B), and ADP-Glo assay kit was purchased from Promega (Item No. V9102). The total volume of the reaction was 5 μL, which consisted of a mixture of three parts: 1 μL of 2% DMSO, 2 μL of the substrate mixture, and 2 μL of the enzyme (final concentration of 25 nM). Then 1 μL of different concentrations of compounds were added for incubation. Reaction conditions: 30 min, 37° C. Then 2.5 μL of ADP Reagent from ADP-Glo Kit was used, mixed well and reacted for 2 h. 5 μL of ADP Detection was added, centrifuged and mixed well. Then the full wavelength value was read from Envision multifunctional plate reader.
Results: Firstly, the cumulative amount of fluorescence intensity of the enzyme in 30 min reaction time (RFU/min) was calculated to represent the initial velocity of the enzyme, and then the ratio of the enzyme's velocity with the addition of compounds (vsample) to the enzyme's velocity without the addition of compounds (vDMSO) was calculated to be the percentage of activity for each concentration group of the samples (Activity rate %), with the formula: % Activity=(V(sample)/(v(DMSO))×100%. The logarithmic value of the concentration was plotted against the activity percentage, and then a non-linear regression was used to calculate the fitted curve. The software GraphPad Prism 8.0 (formula log (inhibitor) vs. response—Variable slope) was used to fit the curve and calculate the IC50 value, and the results are shown in the table below.

[2] = Oral pharmacokinetics in ICR mice; assay type: in vivo, mouse
Protocol: Dosing regimen: 6 normal ICR mice, male, were divided into 2 groups (n=3), one group was orally given the positive control ETC-1002, and one group was orally given the tested compound A3, both administered at a dose of 30 mg/kg; blood was taken from the eye orbits at different time points before and after the administration of the drug, and the plasma drug concentration was detected.

[3] = male, mouse, ICR mice, oral, 30 mg/kg, plasma

CC(C)(CCCC/C=C/CCCCCC(C)(C)C(=O)O)C(=O)O [Compound A3]
IC50 [1]: 85.4 ± 9.8 µM | AUC(0-inf) [2, 3]: 74200 ng·h/mL | AUC(0-t) [2, 3]: 63700 ng·h/mL | Cmax [2, 3]: 13400 ng/mL | half-life [2, 3]: 5.65 h | MRT inf ([2]; male, mouse, ICR mice, oral, 30 mg/kg, plasma, read-out: MRT0-∞): 8.01 h | plasma exposure relative to Bempedoic acid ([2]; same oral dose): more than 4 times
